Results published in patent US11292788B2, “IL-17 and IFN-gamma inhibition for the treatment of autoimmune diseases and chronic inflammation” (Immunic AG, priority 2017, dated 2022).
≈ marks a conversion by molar mass, not a printed value. Read-outs that look alike come from different tables or passages of the source.

Legend:
IL-17A = assay: Cytokine assay: IL-17A production by human PBMC stimulated with PHA; assay type: cell-based; conditions: IC50 class, read-out: IL-17A Inhib.
Method in brief: (§1)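 Human donor PBMC (1×10^5 cells/well) were activated with 2 μg/ml PHA and exposed to compounds for 48 h. Supernatant IL-17A, IL-17F and IFN-γ were measured by Luminex or ELISA. Screening used 10, 1, 0.1 and 0.01 μM; IC50 values came from semilogarithmic titrations.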

IL-17F = assay: Cytokine assay: IL-17F production by human PBMC stimulated with PHA; assay type: cell-based; conditions: IC50 class, read-out: IL-17F Inhib.
Method in brief: as §1

[1] = Aqueous solubility in 50 mM phosphate buffer (HPLC/DAD); assay type: physicochemical; conditions: 50 mM phosphate buffer, 23 °C, pH 7.4, aqueous buffer, kinetic from dmso stock, aqueous solubility class; read-out: aq. solub.
Procedure: To achieve this, the samples (final volume 500 μl, 200 μM compound concentration) were incubated for 24 hours at 23° C. under continuous shaking at 1400 rpm (Thermomixer, Eppendorf) in aqueous phosphate buffers (pH 4.0, 6.0, 7.4 and 9.0) with a final DMSO concentration of 1%. To separate the undissolved compound from the solution, the samples were centrifuged (30 min 18000 g at 23° C.). Supernatants were measured via HPLC equipped with a UV detector and concentrations were calculated according to signals of a standard curve. The standard curve was prepared by diluting a stock solution of each compound (c=0.1 mg/ml; received by adding 10 μl of 20 mM compound in DMSO to 914 μl MeCN) in a certain amount of MeCN to cover a range of 0.1 to 200 μg/ml.

[2] = Microsomal stability: incubation with human liver microsomes, residual parent compound by HPLC-MS/MS; assay type: in vitro ADME; conditions: up to 60 min, read-out: t1/2 hLM
Procedure: Metabolic stability of compounds of the present invention was determined by incubation with human liver microsomes and subsequent determination of residual amount of the respective compound (“parent compound”) by HPLC-MS/MS.
In order to achieve this, in a final reaction volume of 1000 μl, each compound was incubated at a final concentration of 1 μM with 0.5 mg/ml human liver microsomes (HLM Pool 50 Donors, 20 mg/ml, BD Gentest, #452156, LotNr 88114) in 0.1 M Potassium phosphate buffer at pH 7.4, with a cofactor in form of a NADPH regenerating system (Promega, #V9510) according to the manufacturers' specifications. The final DMSO concentration in each sample was 0.4%. The incubation was performed at 37° C. under shaking conditions (Thermomixer, 1400 rpm) for different time intervals up to 60 min. To stop the reaction, for each time point 200 μl of the reaction were taken out and 200 μl ice-cold acetonitrile was added. Then, the samples were centrifuged (4° C., 14000*g for 15 min). The supernatant was analyzed for residual parent compound concentration and scanned for metabolites using HPLC-MS/MS. By using optimized MS methods for each compound, the peak area under curve for the compound specific signal is determined. The change of the peak areas over the assay time of 60 min resemble the remaining parent compound in % of T0. By these points, a balancing line was set. The half-time, as well as the clearance, can then be calculated on the basis of the slope.

INF-γ = assay: Cytokine assay: INF-γ production by human PBMC stimulated with PHA; assay type: cell-based; conditions: IC50 class, read-out: IFN-gamma Inhib.
Method in brief: as §1

[3] = human liver microsomes 0.5 mg/ml, compound 1 μM, pH 7.4, 37° C.
[4] = pH 7.4, human liver microsomes, 1 μM compound, 0.5 mg/ml HLM, 37° C.

SMILES: C[C@]1(O)C[C@H](n2ncc(-c3onc(-c4c(F)cccc4Cl)c3C(=O)OC3CC3)c2C(F)(F)F)C1 [Example 51, cyclopropyl 3-(2-chloro-6-fluorophenyl)-5-{1-[3-hydroxy-3-methylcyclobutyl]-5-(trifluoromethyl)-1H-pyrazol-4-yl}-1,2-oxazole-4-carboxylate]
- IC50 (IL-17A): 0.05 to 0.5 µM
- IC50 (IL-17F): < 0.05 µM
- solubility at 24 h [1]: 3 to 9.99 µM (≈ 1.5 to 4.99 µg/mL)
- half-life at 1 μM [2, 3]: 0.667 to 1.67 h

SMILES: COc1ccc(Cl)c(-c2noc(-c3cnn(CCC(C)(C)O)c3C)c2-c2ncccn2)c1Cl [Example 125, 4-{4-[3-(2,6-dichloro-3-methoxyphenyl)-4-(pyrimidin-2-yl)-1,2-oxazol-5-yl]-5-methyl-1H-pyrazol-1-yl}-2-methylbutan-2-ol]
- IC50 (IL-17A; Homo sapiens, PBMC): 0.05 to 0.5 µM
- IC50 (IL-17F; Homo sapiens, PBMC): < 0.05 µM
- IC50 (INF-γ; Homo sapiens, PBMC): < 0.05 µM
- half-life at 1 μM [2, 4]: > 1.67 h

SMILES: C[C@]1(O)C[C@@H](n2ncc(-c3onc(-c4c(F)cccc4Cl)c3COC3CC3)c2C(F)(F)F)C1 [Example 86, 3-(4-(3-(2-chloro-6-fluorophenyl)-4-(cyclopropoxymethyl)isoxazol-5-yl)-5-(trifluoromethyl)-1H-pyrazol-1-yl)-1-methylcyclobutan-1-ol]
- IC50 (IL-17A; Homo sapiens, PBMC): < 0.05 µM
- IC50 (IL-17F; Homo sapiens, PBMC): < 0.05 µM
- IC50 (INF-γ; Homo sapiens, PBMC): < 0.05 µM
- half-life at 1 μM [2, 3]: > 1.67 h

SMILES: Cc1c(-c2onc(-c3cccc(OCCN(C)C)c3Cl)c2-c2ncccn2)cnn1CCC(C)(C)O [Example 145, 4-[4-(3-{2-chloro-3-[2-(dimethylamino)ethoxy]phenyl}-4-(pyrimidin-2-yl)-1,2-oxazol-5-yl)-5-methyl-1H-pyrazol-1-yl]-2-methylbutan-2-ol]
- IC50 (IL-17A; Homo sapiens, PBMC): 0.5 to 5 µM
- IC50 (IL-17F; Homo sapiens, PBMC): 0.5 to 5 µM
- IC50 (INF-γ; Homo sapiens, PBMC): 0.05 to 0.5 µM
- half-life at 1 μM [2, 4]: > 1.67 h

SMILES: CCN(CC)CCOc1cccc(-c2noc(-c3cnn(CCC(C)(C)O)c3C(F)(F)F)c2-c2ncccn2)c1Cl [Example 137, 4-[4-(3-{2-chloro-3-[2-(diethylamino)ethoxy]phenyl}-4-(pyrimidin-2-yl)-1,2-oxazol-5-yl)-5-(trifluoromethyl)-1H-pyrazol-1-yl]-2-methylbutan-2-ol]
- IC50 (IL-17A; Homo sapiens, PBMC): 0.05 to 0.5 µM
- IC50 (IL-17F; Homo sapiens, PBMC): 0.05 to 0.5 µM
- IC50 (INF-γ; Homo sapiens, PBMC): 0.05 to 0.5 µM
- half-life at 1 μM [2, 4]: 0.167 to 0.666 h

SMILES: CN(C)CCOc1cccc(-c2noc(-c3cnn(CCC(C)(C)O)c3C(F)(F)F)c2-c2ncccn2)c1Cl [Example 134, 4-[4-(3-{2-chloro-3-[2-(dimethylamino)ethoxy]phenyl}-4-(pyrimidin-2-yl)-1,2-oxazol-5-yl)-5-(trifluoromethyl)-1H-pyrazol-1-yl]-2-methylbutan-2-ol]
- IC50 (IL-17A; Homo sapiens, PBMC): < 0.05 µM
- IC50 (IL-17F; Homo sapiens, PBMC): 0.05 to 0.5 µM
- IC50 (INF-γ; Homo sapiens, PBMC): 0.05 to 0.5 µM
- half-life at 1 μM [2, 4]: > 1.67 h

SMILES: C[C@@H](O)Cn1ncc(-c2onc(-c3c(F)cccc3Cl)c2-c2ncccn2)c1C(F)(F)F [Example 97, (R)-1-(4-(3-(2-chloro-6-fluorophenyl)-4-(pyrimidin-2-yl)isoxazol-5-yl)-5-(trifluoromethyl)-1H-pyrazol-1-yl)propan-2-ol]
- IC50 (IL-17A; Homo sapiens, PBMC): < 0.05 µM
- IC50 (IL-17F; Homo sapiens, PBMC): < 0.05 µM
- IC50 (INF-γ; Homo sapiens, PBMC): < 0.05 µM
- half-life at 1 μM [2, 4]: 0.667 to 1.67 h

SMILES: COC(=O)c1c(-c2ccccc2Cl)noc1-c1cnn([C@H]2C[C@](C)(O)C2)c1C [Example 18, methyl 3-(2-chlorophenyl)-5-(1-(3-hydroxy-3-methylcyclobutyl)-5-methyl-1H-pyrazol-4-yl)isoxazole-4-carboxylate]
- IC50 (IL-17A): 0.05 to 0.5 µM
- IC50 (IL-17F): < 0.05 µM
- IC50 (INF-γ): < 0.05 µM
- half-life at 1 μM [2, 3]: > 1.67 h

SMILES: Cc1c(-c2onc(-c3c(F)cccc3Cl)c2-c2ncccn2)cnn1CCC(C)(C)O [Example 127, 4-{4-[3-(2-chloro-6-fluorophenyl)-4-(pyrimidin-2-yl)-1,2-oxazol-5-yl]-5-methyl-1H-pyrazol-1-yl}-2-methylbutan-2-ol]
- IC50 (IL-17A; Homo sapiens, PBMC): 0.05 to 0.5 µM
- IC50 (IL-17F; Homo sapiens, PBMC): 0.05 to 0.5 µM
- IC50 (INF-γ; Homo sapiens, PBMC): < 0.05 µM
- half-life at 1 μM [2, 4]: > 1.67 h
